Reference: patent US12097261B2, “CDK2 degraders and uses thereof” (Kymera Therapeutics, Inc., priority 2021, dated 2024)

Experiments:
[1] = target: T1, CDK2 (Homo sapiens, UniProt P24941); test: CDK2 degradation by immunoblotting in OVCAR-8 cells; format: cell-based; conditions: for DC50: 24 h
T1 construct: endogenous in cells; host or cells: OVCAR-8
Description: (§1) CDK2 and CDK1 Degradation by Immunoblotting
(§2) Ovarian cancer cell line OVCAR-8 were cultured in 12-well plates in complete growth medium. A serial dilution of each compound was added to individual wells from a 2× stock solution, and cells were cultured for 24 hours. Cells were collected by centrifugation, and cell pellets lysed with addition of chilled RIPA buffer supplemented with protease/phosphatase inhibitors followed by incubation for 20 minutes on ice. Lysates were clarified by centrifugation and 5×SDS loading buffer was added to the supernatant followed by heating to 100° C. for 10 minutes. An aliquot of the samples were separated by SDS-PAGE and transferred to a nitrocellulose membrane. Immunoblotting was performed according to standard procedures using anti-CDK2 primary antibody (Abcam ab32147) at 1:1000 dilution and IRDye 800CW goat anti-Rabbit secondary antibody (LICOR) and imaged using a LICOR Odyssey instrument. Blots were stained with anti-beta-Actin primary antibody (Cell Signaling Technology mAb #4970) for normalization. The normalized CDK2/Actin values were calculated as a percent of DMSO treated cells and plotted to determine the concentration at which 50% of CDK2 signal is decreased (DC50). The determination of CDK1 degradation was determined similarly using anti-CDK1 primary antibody (Abcam ab131450).

[2] = target: T2, CDK1 (Homo sapiens, UniProt P06493); test: CDK1 degradation by immunoblotting in OVCAR-8 cells; format: cell-based; conditions: 24 h
T2 construct: endogenous in cells; host or cells: OVCAR-8
Description: as §1, §2

T2 sequence (P06493 whole entry): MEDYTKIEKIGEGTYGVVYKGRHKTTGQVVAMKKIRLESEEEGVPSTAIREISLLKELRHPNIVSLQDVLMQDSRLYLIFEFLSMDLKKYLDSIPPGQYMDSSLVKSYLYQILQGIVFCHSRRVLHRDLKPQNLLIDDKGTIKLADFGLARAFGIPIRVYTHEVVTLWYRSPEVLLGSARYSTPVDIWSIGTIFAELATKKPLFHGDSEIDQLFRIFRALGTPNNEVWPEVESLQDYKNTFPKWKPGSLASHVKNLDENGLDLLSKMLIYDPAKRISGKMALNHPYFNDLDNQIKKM

SMILES | DC50 [1] | DC50 [2] | CDK2 DC50, (OVCAR-8, 24 h) [1]
CC(C)NC(=O)O[C@@H]1CC[C@H](c2cc(NC(=O)c3cnn(C4CCC(CN(C)C5CCN(Cc6cccc7c6n(C)c(=O)n7C6CCC(=O)NC6=O)CC5)CC4)c3)n[nH]2)C1 (stereo partly drawn) [I-84, (1R,3S)-3-(5-(1-(4-(((1-((1-(2,6-dioxopiperidin-3-yl)-3-methyl-2-oxo-2,3-dihydro-1H-benzo[d]imidazol-4-yl)methyl)piperidin-4-yl)(methyl)amino)methyl)cyclohexyl)-1H-pyrazole-4-carboxamido)-1H-pyrazol-3-yl)cyclopentyl isopropylcarbamate] | 1000 to 5000 nM | – | –
CC(C)NC(=O)O[C@@H]1CC[C@H](c2cc(NC(=O)c3cnn(CCOCCOCCOCCCc4ccc5c(c4)n(C)c(=O)n5C4CCC(=O)NC4=O)c3)n[nH]2)C1 (some centres unmarked) [I-75] | 10 to 100 nM | > 5 µM | –
CC(C)NC(=O)O[C@@H]1CC[C@H](c2cc(NC(=O)c3ccnn3CCOCCOCCOCCOCCCc3cccc4c3n(C)c(=O)n4C3CCC(=O)NC3=O)n[nH]2)C1 (some centres unmarked) [I-55] | 10 to 100 nM | > 5 µM | –
CC(C)NC(=O)O[C@@H]1CC[C@H](c2cc(NC(=O)c3cnn(CCCCCCCCCC#Cc4cccc5c(N6CCC(=O)NC6=O)cncc45)c3)n[nH]2)C1 [I-67] | 100 to 1000 nM | 1 to 5 µM | –
Cc1cc(S(=O)(=O)NCCOC2CC3(C2)CN(Cc2ccc4c(c2)n(C)c(=O)n4C2CCC(=O)NC2=O)C3)ccc1Nc1ncc2ccc(=O)n(C3CCCC3)c2n1 (centres unmarked) [I-111] | 10 to 100 nM | 1 to 5 µM | –
CC(C)NC(=O)O[C@@H]1CC[C@H](c2cc(NC(=O)Cc3cnn(CCCCCCCCCc4cccc5c4n(C)c(=O)n5C4CCC(=O)NC4=O)c3)[nH]n2)C1 (some centres unmarked) [I-104] | 10 to 100 nM | 1 to 5 µM | –
Cc1cc(S(=O)(=O)NCCOCCOCCOCCOCC(=O)N[C@H](C(=O)N2C[C@H](O)C[C@H]2C(=O)NCc2ccc(-c3scnc3C)cc2)C(C)(C)C)ccc1Nc1ncc2ccc(=O)n(C3CCCC3)c2n1 [I-139] | > 5000 nM | > 5 µM | –
C[C@@]1(O)CCC[C@H]1n1c(=O)c(C(F)F)cc2cnc(NC3CCN(C(=O)CCCCCCCNc4cccc5c4C(=O)N(C4CCC(=O)NC4=O)C5=O)CC3)nc21 (some centres unmarked) [I-28] | – | – | inactive
C[C@@]1(O)CCC[C@H]1n1c(=O)c(C(F)F)cc2cnc(NC3CCN(C(=O)COCCOCCOCCOCCNc4cccc5c4C(=O)N(C4CCC(=O)NC4=O)C5=O)CC3)nc21 (some centres unmarked) [I-24] | – | – | inactive
Cc1cc(S(=O)(=O)NCCOCCOCCOCCOCCCc2ccc3c(c2)n(C)c(=O)n3C2CCC(=O)NC2=O)ccc1Nc1ncc2c(C)cc(=O)n(C3CCCC3)c2n1 (centres unmarked) [I-138] | > 5000 nM | > 5 µM | –
CC(C)NC(=O)O[C@@H]1CC[C@H](c2cc(NC(=O)c3ccnn3CCCCCCCCCCCCc3cccc4c3n(C)c(=O)n4C3CCC(=O)NC3=O)n[nH]2)C1 (some centres unmarked) [I-89] | – | – | inactive
CC(C)NC(=O)O[C@@H]1CC[C@H](c2cc(NC(=O)c3cnn(CCOCCOCCOCCOCCCc4ccc5c(c4)n(C)c(=O)n5C4CCC(=O)NC4=O)c3)[nH]n2)C1 (some centres unmarked) [I-77] | 100 to 1000 nM | > 5 µM | –
CC(C)NC(=O)O[C@@H]1CC[C@H](c2cc(CC(=O)c3cc(COCCCCCCCc4cccc5c4n(C)c(=O)n5C4CCC(=O)NC4=O)nn3C)[nH]n2)C1 (some centres unmarked) [I-101] | < 10 nM | 0.1 to 1 µM | –
CC(C)NC(=O)O[C@H]1CC[C@@H](c2cc(NC(=O)c3cc(COCCCCCCCCCc4ccn5c(N6CCC(=O)NC6=O)cnc5c4)nn3C)[nH]n2)C1 [I-145] | < 10 nM | 0.1 to 1 µM | –
Cc1cc(S(=O)(=O)NCCOCCOCCCc2cccc3c2n(C)c(=O)n3C2CCC(=O)NC2=O)ccc1Nc1ncc2cc(C(F)F)c(=O)n([C@@H]3CCC[C@@]3(C)O)c2n1 (some centres unmarked) [I-8] | 10 to 100 nM | > 5 µM | –
C[C@@]1(O)CCC[C@H]1n1c(=O)c(C(F)F)cc2cnc(NC3CCN(S(=O)(=O)CCCCCCCCCCNc4cccc5c4C(=O)N(C4CCC(=O)NC4=O)C5=O)CC3)nc21 (some centres unmarked) [I-15] | 10 to 100 nM | 0.1 to 1 µM | –
CC(C)NC(=O)O[C@@H]1CC[C@H](c2cc(NC(=O)c3cnn(CCCCCCCCCCCc4cccn5c(N6CCC(=O)NC6=O)cnc45)c3)n[nH]2)C1 [I-64] | 10 to 100 nM | 1 to 5 µM | –
CC(C)NC(=O)O[C@@H]1CC[C@H](c2cc(NC(=O)c3ccnn3CCOCCOCCOCCCc3ccc4c(c3)n(C)c(=O)n4C3CCC(=O)NC3=O)[nH]n2)C1 (some centres unmarked) [I-83] | 10 to 100 nM | > 5 µM | –
CC(C)NC(=O)O[C@@H]1CC[C@H](c2cc(NC(=O)c3cnn(CCCCCCCCCCCc4cccc5c4n(C)c(=O)n5C4CCC(=O)NC4=O)c3)[nH]n2)C1 (some centres unmarked) [I-97] | 10 to 100 nM | 1 to 5 µM | –

SMILES | DC50 [1] | DC50 [2] | CDK2 DC50, (OVCAR-8, 24 h) [1]
CC(C)NC(=O)O[C@@H]1CC[C@H](c2cc(NC(=O)Cc3cnn(CCCCCCCc4ccc5c(c4)n(C)c(=O)n5C4CCC(=O)NC4=O)c3)n[nH]2)C1 (stereo partly drawn) [I-103, (1R,3S)-3-(3-(2-(1-(7-(1-(2,6-dioxopiperidin-3-yl)-3-methyl-2-oxo-2,3-dihydro-1H-benzo[d]imidazol-5-yl)heptyl)-1H-pyrazol-4-yl)acetamido)-1H-pyrazol-5-yl)cyclopentyl isopropylcarbamate] | 10 to 100 nM | > 5 µM | –
CC(C)NC(=O)O[C@@H]1CC[C@H](c2cc(NC(=O)c3cnn(CCCCCCCCCC#Cc4cccn5c(N6CCC(=O)NC6=O)cnc45)c3)n[nH]2)C1 [I-68] | 10 to 100 nM | > 5 µM | –
Cc1cc(S(=O)(=O)NCCOCCOCCOCCOCCCc2cccc3c2n(C)c(=O)n3C2CCC(=O)NC2=O)ccc1Nc1ncc(Br)c(Nc2cccc(F)c2C(N)=O)n1 (centres unmarked) [I-37, 2-((5-Bromo-2-((4-(N-(15-(1-(2,6-dioxopiperidin-3-yl)-3-methyl-2-oxo-2,3-dihydro-1H-benzo[d]imidazol-4-yl)-3,6,9,12-tetraoxapentadecyl)sulfamoyl)-2-methylphenyl)amino)pyrimidin-4-yl)amino)-6-fluorobenzamide] | 10 to 100 nM | 1 to 5 µM | –
CC(C)NC(=O)O[C@H]1CC[C@@H](c2cc(NC(=O)c3ccnn3CCOCCOCCOCCOCCCc3ccc4c(c3)n(C)c(=O)n4C3CCC(=O)NC3=O)n[nH]2)C1 (some centres unmarked) [I-149] | 10 to 100 nM | > 5 µM | –
Cn1c(=O)n(C2CCC(=O)NC2=O)c2ccc(CCCCCCCCCCCC(=O)N3CCC(Nc4ncc5cc(C(F)F)c(=O)n([C@@H]6CCC[C@@]6(C)O)c5n4)CC3)cc21 (some centres unmarked) [I-25] | – | – | inactive
CC(C)NC(=O)O[C@@H]1CC[C@H](c2cc(NC(=O)c3ccnn3CCOCCOCCOCCOCCCc3ccc4c(c3)n(C)c(=O)n4C3CCC(=O)NC3=O)n[nH]2)C1 (some centres unmarked) [I-59] | 10 to 100 nM | > 5 µM | –
Cc1cc(S(=O)(=O)NCCOCCOCCCc2ccc3c(c2)n(C)c(=O)n3C2CCC(=O)NC2=O)ccc1Nc1ncc2ccc(=O)n(C3CCCC3)c2n1 (centres unmarked) [I-146] | < 10 nM | 1 to 5 µM | –
Cc1cc(S(=O)(=O)NCCOCCOCCOCCOCCNc2cccc3c2C(=O)N(C2CCC(=O)NC2=O)C3=O)ccc1Nc1ncc2cc(C(F)F)c(=O)n([C@@H]3CCC[C@@]3(C)O)c2n1 (some centres unmarked) [I-17] | 10 to 100 nM | > 5 µM | –
Cn1c(=O)n(C2CCC(=O)NC2=O)c2cccc(CCCOCCOCCOCCOCC(=O)N3CCC(Nc4ncc5cc(C(F)F)c(=O)n([C@@H]6CCC[C@@]6(C)O)c5n4)CC3)c21 (stereo partly drawn) [I-21, 3-(4-(1-(4-((6-(Difluoromethyl)-8-((1R,2R)-2-hydroxy-2-methylcyclopentyl)-7-oxo-7,8-dihydropyrido[2,3-d]pyrimidin-2-yl)amino)piperidin-1-yl)-1-oxo-3,6,9,12-tetraoxapentadecan-15-yl)-3-methyl-2-oxo-2,3-dihydro-1H-benzo[d]imidazol-1-yl)piperidine-2,6-dione] | – | – | inactive
Cn1c(=O)n(C2CCC(=O)NC2=O)c2ccc(CCCCCCCCC(=O)N3CCC(Nc4ncc5cc(C(F)F)c(=O)n([C@@H]6CCC[C@@]6(C)O)c5n4)CC3)cc21 (some centres unmarked) [I-22] | – | – | inactive
Cn1c(=O)n(C2CCC(=O)NC2=O)c2ccc(CCCOCCOCCOCCOCC(=O)N3CCC(Nc4ncc5cc(C(F)F)c(=O)n([C@@H]6CCC[C@@]6(C)O)c5n4)CC3)cc21 (some centres unmarked) [I-20] | – | – | inactive
C[C@@]1(O)CCC[C@H]1n1c(=O)c(C(F)F)cc2cnc(NC3CCN(C(=O)COCCOCCNc4cccc5c4C(=O)N(C4CCC(=O)NC4=O)C5=O)CC3)nc21 (some centres unmarked) [I-27] | – | – | inactive
CC(C)NC(=O)O[C@@H]1CC[C@H](c2cc(NC(=O)c3ccnn3CCCCCCCCCc3ccc4c(c3)n(C)c(=O)n4C3CCC(=O)NC3=O)n[nH]2)C1 (some centres unmarked) [I-87] | – | – | inactive
Cn1c(=O)n(C2CCC(=O)NC2=O)c2cccc(CCCOCCOCC(=O)N3CCC(Nc4ncc5cc(C(F)F)c(=O)n([C@@H]6CCC[C@@]6(C)O)c5n4)CC3)c21 (some centres unmarked) [I-29] | – | – | inactive
CC(C)NC(=O)O[C@@H]1CC[C@H](c2cc(NC(=O)c3cnn(CCOCCOCCCc4ccc5c(c4)n(C)c(=O)n5C4CCC(=O)NC4=O)c3)[nH]n2)C1 (some centres unmarked) [I-85] | – | – | inactive
Cn1c(=O)n(C2CCC(=O)NC2=O)c2cccc(CCCCCCCCCCCC(=O)N3CCC(Nc4ncc5cc(C(F)F)c(=O)n([C@@H]6CCC[C@@]6(C)O)c5n4)CC3)c21 (some centres unmarked) [I-26] | – | – | inactive
Cn1c(=O)n(C2CCC(=O)NC2=O)c2cccc(CCCCCCCCC(=O)N3CCC(Nc4ncc5cc(C(F)F)c(=O)n([C@@H]6CCC[C@@]6(C)O)c5n4)CC3)c21 (some centres unmarked) [I-23] | – | – | inactive
CC(C)NC(=O)O[C@@H]1CC[C@H](c2cc(NC(=O)Cc3cnn(C4CCC(CN(C)C5CCN(Cc6cccc7c6n(C)c(=O)n7C6CCC(=O)NC6=O)CC5)CC4)c3)n[nH]2)C1 (some centres unmarked) [I-93] | – | – | inactive
